Tests used:
Format in all cases: in vivo
Myzus persicae = experiment: Activity against Myzus persicae (foliar application); conditions: 400 ppm active ingredient, spray on infected pea seedlings, 20°, 3 and 6 days, read-out: percentage reduction in the population (% activity)
Procedure: Activity Against Myzus persicae (Foliar Application) Pea seedlings are infected with Myzus persicae, subsequently sprayed with a spray mixture comprising 400 ppm of active ingredient and then incubated at 20°. 3 and 6 days later, the percentage reduction in the population (% activity) is determined by comparing the number of dead aphids between the treated and untreated plants.

Spodoptera littoralis = experiment: Activity against Spodoptera littoralis (sprayed soya plants); conditions: 72 h, 400 ppm active ingredient, sprayed young soya plants, 1st instar caterpillars, 3 days, read-out: percentage reduction in the population and in the feeding damage (% activity)
Procedure: (§1) Activity Against Spodoptera littoralis Young soya plants are sprayed with an aqueous emulsion spray mixture comprising 400 ppm of active ingredient and, after the spray coating has dried on, populated with 10 caterpillars (1st instar) of Spodoptera littoralis and introduced into a plastic container. 3 days later, the percentage reduction in the population and in the feeding damage (% activity) are determined by comparing the number of dead caterpillars and the feeding damage between the treated and untreated plants.

Plutella xylostella = experiment: Activity against Plutella xylostella (sprayed cabbage plants); conditions: 72 h, 400 ppm active ingredient, sprayed young cabbage plants, 3rd instar caterpillars, 3 days, read-out: percentage reduction in the population and in the feeding damage (% activity)
Procedure: as §1, with “Plutella xylostella” for “Spodoptera littoralis”, “cabbage” for “soya”, “(3rd” for “(1st”

Heliothis virescens = experiment: Activity against Heliothis virescens (foliar application); conditions: 144 h, 400 ppm active ingredient, sprayed young soya plants, 1st instar caterpillars, 6 days, read-out: percentage reduction in the population and in the feeding damage (% activity)
Procedure: as §1, with “Against Heliothis virescens (Foliar Application)” for “Against Spodoptera littoralis”, “of Heliothis virescens” for “of Spodoptera littoralis”, “container. 6” for “container. 3”

Diabrotica balteata = experiment: Activity against Diabrotica balteata (sprayed maize seedlings); conditions: 144 h, 400 ppm active ingredient, 2nd instar larvae, 6 days, read-out: percentage reduction in the population (% activity)
Procedure: Activity Against Diabrotica balteata Maize seedlings are sprayed with an aqueous emulsion spray mixture comprising 400 ppm of active ingredient and, after the spray coating has dried on, populated with 10 larvae (2nd instar) of Diabrotica balteata and introduced into a plastic container. 6 days later, the percentage reduction in the population (% activity) is determined by comparing the number of dead larvae between the treated and untreated plants.

Measured: inhibition at 400 ppm

CNC(=O)c1cc2ccccc2c(Cl)c1NC(=O)c1cc(C(F)(F)F)nn1-c1ncccc1Cl [Compound T1.1]
> 80%: all assays above

CNC(=O)c1cc2ccccc2c(Br)c1NC(=O)c1cc(C(F)(F)F)nn1-c1ncccc1Cl [Compound T7.1]
> 80%: all assays above

Reference: patent publication US7812170B2, “Insecticides” (Syngenta Crop Protection, Inc., priority 2004, dated 2010)
